Common to all, as to type: in vivo, nude mice (nu/nu)
Data set [1] can be described thus: Side effects in tumor transplanted nude mice. The following applies: during treatment. Here is the method:
(§1) T-cell deficient nude mice (nu/nu) of 6 weeks old were purchased from Charles River Laboratory, and housed and treated in a sterile environment following Institutional Animal Care & Use Committee Program. 48 mice were respectively subcutaneously inoculated on ribbed belly with 5×10^6 human liver cancer cells (HepG3B), human lung caner cells (NCI-H23), and human colon cancer cells (HCT-116) suspended in 0.2 ml HBSS/matrigel (50:50, V/V). When the tumor grew to have an average diameter of 7-8 mm and a volume of about 100-200 mm^3, 24 mice were picked up, and assigned to treatment groups (16 animals/2 groups), and a control group (8 animals). The 2 treatment groups were administered with the compounds ZTP and ZTQ dissolved in 15% Captsol respectively at a dose of 30 mg/kg and 60 mg/kg, and the control group only received an excipient (15% Captsol).
(§2) The dose schedule of the test compounds in the tumor transplanted nude mice was as follows: the compounds ZTP and ZTQ dissolved in 15% Captsol were daily orally administered as a 200 μl solution containing 0.75 mg of ZTP and 1.5 mg of ZTQ for 5 days/week over 3 consecutive weeks, followed by one-week break; and the control group was only administered with 200 μl of the placebo (15% Captsol) for 3 weeks, followed by 1 week of break. The two groups of animals were housed separately, and allowed to free access to food.

The test system of data set [2] is human liver cancer cells (HepG3B). Description: Transplantation model of human liver cancer (HepG3B) in nude mice. The following applies: HepG3B subcutaneous in nude mice; oral daily 5 days/week, 3 weeks; ZTP 30 mg/kg, ZTQ 60 mg/kg; lower = stronger. Here is the method:
as §1
(§3) The same number of mice of each type was assigned to the control group and the treatment groups with the compounds ZTP and ZTQ respectively.
as §2
(§4) Evaluation of antitumor effect: the tumor size was measured every 3 or 4 days. The tumor volume was calculated using the equation below: […], in which a denotes the width (the shorter diameter), and b denotes the length (the longer diameter). Relative tumor volume (RTV) of each tumor refers to the ratio of the volume at a specified time to that at the beginning of the treatment. The average RTV for each treatment group was calculated. The antitumor activity was determined by calculating the tumor growth inhibition using a formula below. […]

Data set [3] has as its system human lung cancer cells (NCI-H23). Description: Transplantation model of human lung cancer (NCI-H23) in nude mice. As to conditions: NCI-H23 subcutaneous in nude mice; oral daily 5 days/week, 3 weeks; ZTP 30 mg/kg, ZTQ 60 mg/kg; lower = stronger. Here is the method: as §1, §3, §2, §4
The test system of data set [4] is human colon cancer cells (HCT-116). Description: Transplantation model of human colon cancer (HCT-116) in nude mice. As to conditions: HCT-116 subcutaneous in nude mice; oral daily 5 days/week, 3 weeks; ZTP 30 mg/kg, ZTQ 60 mg/kg; lower = stronger. Here is the method: as §1, §3, §2, §4

“N-[4-chloro-3-(trifluoromethyl)phenyl]-[4-(N-methyl-formamide)(4-pyridyloxy)phenyl]-thiourea [ZTP]”: the “side effect, including the change in body weight” value in data set [1] is recorded as “no obvious side effect”.

For the molecule `CNC(=O)c1cc(Oc2ccc(NC(=O)Nc3ccc(Cl)c(C(F)(F)F)c3)cc2)ccn1` [Sorafenib, reference compound], the “side effect, including the change in body weight” value in data set [1] is recorded as “relatively large side effect”. Besides, the “TGI (T/C×100)” value in data set [2] was 14%; in data set [3], 11.25%; in data set [4], 33%.

The record behind these values is patent US20130225641A1, “ANTICANCER COMPOUNDS AND PREPARATION METHODS THEREOF” (priority 2010, published 2013).
